For experiment [1], the system named is myotonic WT EDL. Put plainly: Myotonia, ex vivo EDL incubated with 9-AC. Details: species or system mouse.
In experiment [2] the test system is myotonic Cav1.1^Δe29 EDL. Kind of experiment: Myotonia, ex vivo EDL incubated with 9-AC. Details: species or system mouse.
Experiment [3] deals with Cav1.1^Δe29+9-AC EDL muscle. Put plainly: Transient weakness, ex vivo EDL made myotonic with 9-AC. The note with it: for transient weakness: 20-wk mice. Details: initial force generation drop: dose or concentration left out as unconfirmed.
For experiment [4], the system named is Cav1.1^Δe29/ClC-1^−/− mice. Put plainly: Body weight measurements in Cav1.1^Δe29/ClC-1^−/− mice. Format: in vivo, mouse. The procedure: Mice were provided food cups immediately after weaning, and food was changed daily. No other food source was given, but water was provided and changed weekly along with cages.
Body weight of the mice was measured every other day following weaning to the end of terminal experimentation. For statistical analysis, two-way ANOVA was performed on the average of each week's measurements. Percent body weight change at 10 weeks was determined with the first weight measurement taken post-weaning, and the body weight reached at 10 weeks.

Experiment [5] has as its system Cav1.1^Δe29/ClC-1^−/− mice. Put plainly: Time of righting reflex in Cav1.1^Δe29/ClC-1^−/− mice. Format: in vivo, mouse. The procedure: Mice were held in a supine position on a level surface and then released. Two persons began timing immediately after release, and timing was stopped once all four paws were down on the surface. This was repeated for a total of 10 timed righting responses with a minimum of five minutes in between each recording to avoid myotonic warm-up. Recordings less than a second were recorded as “1,” and righting was considered a failure if righting took more than 60 seconds. If failure was reached, no further recordings were measured for that mouse for that week. The two longest and two shortest recording for each mouse was removed, and the average of the middle 6 recordings were used for analysis. Two-way ANOVA on the week-to-week results and one-way ANOAV with multiple comparisons for the timepoint data (10-week and 20-week) were performed.

In experiment [6] the test system is Cav1.1^Δe29/ClC-1^−/− mice. Kind of experiment: Whole body plethysmography in Cav1.1^Δe29/ClC-1^−/− mice. The experiment is classed as in vivo, mouse. The procedure: Whole body plethysmography (Buxco® Small Animal Whole Body Plethysmography, Data Science Internation) was used to measure respiratory function at 10 weeks (all groups) and 20 weeks (excluding untreated Cav1.1^Δe29/ClC-1^−/−). Mice were acclimated to the system for two days, with data being collected on day three. […] Average data from the 10-minute acquisition period for frequency (Breath/min) and tidal volume (mL) were analyzed for statistics by one-way ANOVA with multiple comparisons.

In experiment [7] the test system is EDL muscle of Cav1.1^Δe29/ClC-1^−/− mice. Put plainly: In vitro muscle contraction of EDL isolated from long-term orally treated mice (no drug in bath). The experiment is classed as in vivo, mouse. The note with it: 20-weeks-of-age, amlodipine treatment.
Experiment [8] has as its system diaphragm strip of Cav1.1^Δe29/ClC-1^−/− mice. Kind of experiment: In vitro muscle contraction of diaphragm strips isolated from long-term orally treated mice (no drug in bath). The experiment is classed as in vivo, mouse.
For experiment [9], the system named is WT and Cav1.1^Δe29 EDLs (no 9AC). Kind of experiment: Myotonia protocol, ex vivo EDL without 9-AC. On the set-up: species or system mouse. The note with it: 10 mM amlodipine in the bath.
Experiment [10] has as its system non-myotonic and myotonic WT and Cav1.1^Δe29 mouse muscle. Put plainly: Peak contraction force of non-myotonic and myotonic ex vivo EDL, drug in bath. The note with it: 5 mM and 20 mM verapamil in bath, with or without 100 mM 9-AC; 20-wk mice.
The subject of experiment [11] is WT+9-AC EDL muscle. Put plainly: Transient weakness, ex vivo EDL made myotonic with 9-AC. The note with it: in bath, 20-wk mice.
[12] abbreviates: 5 mg/kg/day amlodipine vs untreated.
[13] abbreviates: 20-weeks of age, amlodipine treated vs WT.

The results in this text go back to US20250032443A1, “TREATMENT OF MYOTONIC DISORDERS” (University of Rochester, priority 2021, published 2025).

Molecules are shown by their SMILES.

Turning to `COC(=O)C1=C(C)NC(C)=C(C(=O)OC)C1c1ccccc1[N+](=O)[O-]` [nifedipine, 3,5-dimethyl 2,6-dimethyl-4-(2-nitrophenyl)-1,4-dihydropyridine-3,5-dicarboxylate], the myotonia result is on record as “reduced myotonia” in [1] (75 nM nifedipine) and “reduction in the myotonia” in experiment [2] (75 nM nifedipine). Further, in experiment [3] (10 mM nifedipine), the “initial drop in force generation between the first and second tetani” value was “improved”. Also, in experiment [3] (10 mM nifedipine in the bath), the transient weakness result is “significant improvement in transient weakness”.

Consider `CCOC(=O)C1=C(COCCN)NC(C)=C(C(=O)OC)C1c1ccccc1Cl` (racemic) [amlodipine, (RS)-3-ethyl 5-methyl 2-[(2-aminoethoxy)methyl]-4-(2-chlorophenyl)-6-methyl-1,4-dihydropyridine-3,5-dicarboxylate], for which, in [4] (5 mg/kg/day amlodipine vs WT), the “percent body weight change compared to WT” value is given as “not significantly different”. In experiment [4] (setting [12]), the “percent body weight change from weaning at 10 weeks” value is on record as “significant improvement”. Also, the “time of righting reflex, week-to-week, compared to ClC-1^−/− alone mice” value in [5] (5 mg/kg/day amlodipine) is “no significant difference in righting”. Further, the “average time of righting reflex compared to WT mice” value in experiment [5] (5 mg/kg/day amlodipine vs WT) is listed as “not a significant difference in time of righting”. In [5] (setting [12]), the “average time of righting reflex at 10- and 20-week of age” value is “significantly improve time of righting”; the “time of righting reflex, weekly” value is on record as “significantly improves time of righting”. In addition, the minute ventilation result in experiment [6] (10-week, amlodipine treated vs untreated) is recorded as “not improved”. The frequency of respiration entry in experiment [6] (10-weeks, 5 mg/kg/day amlodipine) is “reduction in the frequency”. In experiment [6] (setting [13]), the “frequency of respiration compared to WT” value is on record as “not significantly different” and the “minute ventilation compared to WT” value is “significant reduction”. Besides, the respiratory function overall result in [6] (amlodipine treatment) was “moderately impacted”. For the same compound, the “muscle function and muscle force generation in EDL” value in experiment [7] is recorded as “not a significant impact”. In experiment [8] (20-weeks-of-age, amlodipine treatment), the “muscle function and muscle force generation in diaphragm” value is recorded as “not a significant impact”. In experiment [8] (20-wk, amlodipine treated), the “diaphragm force reduction at 150 Hz and in frequency dependence protocol, compared to ClC-1^−/− alone mice” value is “comparable”. In addition, the “diaphragm strip force generation compared to WT diaphragm” value in experiment [8] (20-wk, amlodipine treated vs WT) was “force generation reduction”. In addition, in experiment [1] (10 mM amlodipine), the myotonia entry is recorded as “reduced myotonia”. Moreover, in experiment [2] (10 mM amlodipine), the myotonia entry was “reduction in the myotonia”; the “myotonia, difference between WT and Cav1.1^Δe29, first tetanus” value was “significant difference”. In [2] (10 mM amlodipine, 100 mM 9-AC), the “myotonia, difference between WT and Cav1.1^Δe29, following tetani” value was “no difference”. The “myotonia (integration normalized to specific force) without 9AC” value in experiment [9] was “has no affect”. In [3] (10 mm amlodipine in the bath), the “initial force generation drop” value is recorded as “improved” and the transient weakness entry is recorded as “improvement to transient weakness”.

With `COc1ccc(CCN(C)CCCC(C#N)(c2ccc(OC)c(OC)c2)C(C)C)cc1OC` (racemic) [verapamil, (RS)-2-(3,4-Dimethoxyphenyl)-5-{[2-(3,4-dimethoxyphenyl)ethyl]-(methyl)amino}-2-prop-2-ylpentanenitrile], the peak contraction force entry in experiment [10] is “does not reduce peak contraction force”. Further, the transient weakness result in [11] (5 mM verapamil) was “improve transient weakness”; in [11] (20 mM verapamil), “improve transient weakness”; in [3] (5 mM verapamil, in bath) it was “improve transient weakness”; in experiment [3] (20 um verapamil, in bath), “significant and robust”.
